Measured values published in patent publication US20250034216A1, “STEREOSELECTIVE COVALENT LIGANDS FOR ONCOGENIC AND IMMUNOLOGICAL PROTEINS” (The Scripps Research Institute, priority 2021, published 2025).

Assays:
Assay in all cases: IA-DTB cysteine engagement
Type in all cases: binding
Settings in all cases: 22Rv1 cells, 20 μM probe, 1 h, relative to DMSO
[1] = target: T1, CHUK_C406 (Homo sapiens, UniProt O15111)
T1 construct: endogenous in cells; host or cells: 22Rv1
T1 sequence (O15111 1-745): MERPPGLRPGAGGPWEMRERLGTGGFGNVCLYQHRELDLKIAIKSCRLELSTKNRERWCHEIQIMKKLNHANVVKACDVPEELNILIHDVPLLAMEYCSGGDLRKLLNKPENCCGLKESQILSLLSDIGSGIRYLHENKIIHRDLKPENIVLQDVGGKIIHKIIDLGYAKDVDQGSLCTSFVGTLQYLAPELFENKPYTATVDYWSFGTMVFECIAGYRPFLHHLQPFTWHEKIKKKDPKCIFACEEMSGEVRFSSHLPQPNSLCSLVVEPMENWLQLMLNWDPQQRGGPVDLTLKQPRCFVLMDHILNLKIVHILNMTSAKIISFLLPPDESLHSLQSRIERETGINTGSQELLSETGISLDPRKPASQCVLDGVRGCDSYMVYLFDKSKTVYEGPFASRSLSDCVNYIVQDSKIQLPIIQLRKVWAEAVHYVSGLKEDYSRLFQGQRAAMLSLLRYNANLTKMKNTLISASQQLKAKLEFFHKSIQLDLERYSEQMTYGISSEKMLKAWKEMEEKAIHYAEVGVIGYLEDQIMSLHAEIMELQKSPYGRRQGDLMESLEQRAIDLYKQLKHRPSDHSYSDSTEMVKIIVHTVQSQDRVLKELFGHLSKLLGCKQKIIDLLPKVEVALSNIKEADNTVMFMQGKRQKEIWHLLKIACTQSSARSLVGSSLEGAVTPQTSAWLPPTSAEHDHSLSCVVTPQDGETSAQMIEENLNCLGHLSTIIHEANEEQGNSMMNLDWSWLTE
In short: (§1)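 Cells were treated in situ with electrophilic probes, then lysed, and the lysates (2 mg/mL protein) were labeled with IA-DTB for 1 h at ambient temperature. After reduction, alkylation and trypsin digestion, labeled peptides were streptavidin-enriched, TMT-labeled and fractionated. Engagement ratios are probe vs DMSO reporter intensities, averaged across replicates.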

[2] = target: T2, TM7SF2_C184 (Homo sapiens, UniProt O76062)
T2 construct: endogenous in cells; host or cells: 22Rv1
T2 sequence (O76062 1-418): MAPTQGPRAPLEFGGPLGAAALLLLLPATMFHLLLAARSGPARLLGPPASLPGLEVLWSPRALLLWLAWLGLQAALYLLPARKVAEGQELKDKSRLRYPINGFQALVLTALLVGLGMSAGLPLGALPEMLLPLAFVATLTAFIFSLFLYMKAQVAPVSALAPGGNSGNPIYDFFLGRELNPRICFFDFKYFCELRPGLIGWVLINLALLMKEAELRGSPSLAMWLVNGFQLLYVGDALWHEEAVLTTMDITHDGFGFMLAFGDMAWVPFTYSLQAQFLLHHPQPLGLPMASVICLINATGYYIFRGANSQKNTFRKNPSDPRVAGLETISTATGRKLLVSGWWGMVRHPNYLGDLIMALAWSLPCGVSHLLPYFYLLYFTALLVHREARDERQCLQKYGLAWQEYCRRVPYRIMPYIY
In short: as §1

[3] = target: T3, DHRS13_C174 (Homo sapiens, UniProt Q6UX07)
T3 construct: endogenous in cells; host or cells: 22Rv1
T3 sequence (Q6UX07 26-377): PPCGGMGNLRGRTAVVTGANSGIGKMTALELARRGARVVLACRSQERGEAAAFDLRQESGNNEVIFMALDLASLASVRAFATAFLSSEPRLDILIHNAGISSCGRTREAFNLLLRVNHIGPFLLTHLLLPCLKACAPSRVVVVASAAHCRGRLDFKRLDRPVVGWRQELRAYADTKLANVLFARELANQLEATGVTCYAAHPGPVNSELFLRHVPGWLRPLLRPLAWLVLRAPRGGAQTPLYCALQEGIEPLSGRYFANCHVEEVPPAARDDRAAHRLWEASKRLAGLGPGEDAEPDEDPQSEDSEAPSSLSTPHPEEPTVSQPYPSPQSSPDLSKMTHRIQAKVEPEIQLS
In short: as §1

| SMILES | % engagement CHUK_C406 [1] | % engagement TM7SF2_C184 [2] | % engagement DHRS13_C174 [3] |
| --- | --- | --- | --- |
| C=CC(=O)N1C[C@H](c2ccc(Br)cc2)[C@@H]1C(=O)Nc1cccc2cccnc12 [MY-1B, (2R,3S)-1-acryloyl-3-(4-bromophenyl)-N-(quinolin-8-yl)azetidine-2-carboxamide] | 28.5% | 64% | 69.75% |
| C=CC(=O)N1C[C@H](c2ccc(Br)cc2)[C@H]1C(=O)Nc1cccc2cccnc12 [MY-3B, (2S,3S)-1-acryloyl-3-(4-bromophenyl)-N-(quinolin-8-yl)azetidine-2-carboxamide] | 97% | 100% | 61.75% |
| C=CC(=O)N1C[C@H](c2ccc(Br)cc2)[C@H]1C(=O)Nc1cccc2cccnc12 [MY-3A, (2S,3S)-1-acryloyl-3-(4-bromophenyl)-N-(quinolin-8-yl)azetidine-2-carboxamide] | 0% | 66.5% | 42% |
| C=CC(=O)N1C[C@@H](c2ccc(Br)cc2)[C@H]1C(=O)Nc1cccc2cccnc12 [MY-1A, (2S,3R)-1-acryloyl-3-(4-bromophenyl)-N-(quinolin-8-yl)azetidine-2-carboxamide] | 51.5% | 86.5% | 60.25% |
